Assay results: ChEMBL document CHEMBL1131892, “Synthesis and biological activities of NB-506 analogues: Effects of the positions of two hydroxyl groups at the indole rings” (Bioorg Med Chem Lett, 1999)

Columns and labels:
DLD-1 = test: In vitro cytotoxicity against DLD-1 (human colon cancer) cells.; type: functional, cell-based
Mus musculus = test: Tested for anticancer effect on MKN-45 human stomach cancer cells implanted subcutaneously into flanks of nude mice.; type: functional
P388 [1] = test: Inhibition of protein-DNA complex in P388 (murine leukemia) cells.; type: functional, Mus musculus
[2] = Compound was tested for anticancer effect on cancer cells implanted subcutaneously into flanks of nude mice and safety margin was determined (LD10/GID75); type: functional, Cancer cell lines
MKN-45 = test: In vitro cytotoxicity against MKN-45 (human stomach cancer) cells.; type: functional, cell-based
P388 [3] = test: In vitro cytotoxicity against p388 (murine leukemia) cells.; type: functional, cell-based; conditions: Mus musculus
DNA topoisomerase 1 = target: T1, DNA topoisomerase 1 (Homo sapiens, UniProt P11387); test: In vitro inhibition of Topoisomerase I-mediated DNA cleavage using supercoiled pBR322 plasmid DNA.
T1 sequence (P11387 whole entry): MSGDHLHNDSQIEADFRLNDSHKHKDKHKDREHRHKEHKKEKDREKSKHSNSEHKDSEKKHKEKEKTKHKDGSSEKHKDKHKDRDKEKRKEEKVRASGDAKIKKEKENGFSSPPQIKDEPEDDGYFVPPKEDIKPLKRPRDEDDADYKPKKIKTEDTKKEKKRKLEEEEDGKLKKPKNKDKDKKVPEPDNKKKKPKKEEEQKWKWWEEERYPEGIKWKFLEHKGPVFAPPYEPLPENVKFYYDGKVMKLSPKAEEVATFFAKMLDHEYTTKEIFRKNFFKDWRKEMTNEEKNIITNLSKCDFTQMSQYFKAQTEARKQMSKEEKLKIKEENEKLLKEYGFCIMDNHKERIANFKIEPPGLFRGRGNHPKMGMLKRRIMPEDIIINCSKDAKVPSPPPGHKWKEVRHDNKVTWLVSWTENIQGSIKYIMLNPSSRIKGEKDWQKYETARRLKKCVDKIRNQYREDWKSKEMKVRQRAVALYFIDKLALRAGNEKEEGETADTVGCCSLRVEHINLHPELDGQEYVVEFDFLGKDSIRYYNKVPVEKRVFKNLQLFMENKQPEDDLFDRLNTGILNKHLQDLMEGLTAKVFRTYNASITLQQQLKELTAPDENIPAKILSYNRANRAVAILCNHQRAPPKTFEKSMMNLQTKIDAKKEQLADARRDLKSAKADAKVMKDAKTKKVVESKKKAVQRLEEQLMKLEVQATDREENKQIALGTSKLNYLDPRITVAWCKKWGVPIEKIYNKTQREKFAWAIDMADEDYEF

SMILES	IC50 (DLD-1) [nM]	GID75 (Mus musculus) [mg m**-2]	LD10 (Mus musculus) [mg m**-2]	EC200 (P388 [1]) [µM]	Ratio [2]	IC50 (MKN-45) [nM]	IC50 (P388 [3]) [nM]	EC50 (DNA topoisomerase 1) [nM]
O=C1c2c(c3c4cccc(O)c4n(C4OC(CO)C(O)C(O)C4O)c3c3[nH]c4c(O)cccc4c23)C(=O)N1NC(CO)CO (stereo not given)	520	78	390	0.45	5	–	–	–
O=C1c2c(c3c4ccccc4n(C4OC(CO)C(O)C(O)C4O)c3c3[nH]c4ccc(O)cc4c23)C(=O)N1NC(CO)CO (stereo not given)	5500	–	–	2	–	720	130	1100
O=C1c2c(c3c4ccc(O)cc4n(C4OC(CO)C(O)C(O)C4O)c3c3[nH]c4c(O)cccc4c23)C(=O)N1NC(CO)CO (stereo not given)	200	320	350	0.8	1.1	65	10	55
O=C1c2c(c3c4cc(O)ccc4n(C4OC(CO)C(O)C(O)C4O)c3c3[nH]c4cc(O)ccc4c23)C(=O)N1NC(CO)CO (stereo not given)	340	710	1000	0.65	1.4	120	3.5	55
O=C1c2c(c3c4cc(O)ccc4n(C4OC(CO)C(O)C(O)C4O)c3c3[nH]c4ccc(O)cc4c23)C(=O)N1NC(CO)CO (stereo not given)	11000	300	380	0.6	1.3	250	6.8	210
O=C1c2c(c3c4cc(O)cc(O)c4n(C4OC(CO)C(O)C(O)C4O)c3c3[nH]c4c(O)cc(O)cc4c23)C(=O)N1NC(CO)CO (stereo not given)	> 30000	–	–	5.5	–	> 30000	> 30000	350
O=C1c2c(c3c4ccccc4n(C4OC(CO)C(O)C(O)C4O)c3c3[nH]c4cccc(O)c4c23)C(=O)N1NC(CO)CO (stereo not given)	> 30000	–	–	>10	–	2100	700	570
O=C1c2c(c3c4cccc(O)c4n(C4OC(CO)C(O)C(O)C4O)c3c3[nH]c4ccccc4c23)C(=O)N1NC(CO)CO (stereo not given)	2600	–	–	2	–	640	22	650
O=C1c2c(c3c4ccccc4n(C4OC(CO)C(O)C(O)C4O)c3c3[nH]c4c(O)cccc4c23)C(=O)N1NC(CO)CO (stereo not given)	10000	–	–	>10	–	1600	140	210
O=C1c2c(c3c4cc(O)ccc4n(C4OC(CO)C(O)C(O)C4O)c3c3[nH]c4c(O)cccc4c23)C(=O)N1NC(CO)CO (stereo not given)	5100	2200	1800	3	0.8	300	31	130
O=C1c2c(c3c4ccc(O)cc4n(C4OC(CO)C(O)C(O)C4O)c3c3[nH]c4ccccc4c23)C(=O)N1NC(CO)CO (stereo not given)	1000	800	1000	0.4	1.3	25	3.1	230
O=C1c2c(c3c4c(O)cccc4n(C4OC(CO)C(O)C(O)C4O)c3c3[nH]c4ccccc4c23)C(=O)N1NC(CO)CO (stereo not given)	> 30000	–	–	>10	–	7100	910	490
O=C1c2c(c3c4ccc(O)cc4n(C4OC(CO)C(O)C(O)C4O)c3c3[nH]c4cc(O)ccc4c23)C(=O)N1NC(CO)CO (stereo not given)	120	45	>1600	0.1	>36	4.8	1.5	51
O=C1c2c(c3c4ccc(O)cc4n(C4OC(CO)C(O)C(O)C4O)c3c3[nH]c4ccc(O)cc4c23)C(=O)N1NC(CO)CO (stereo not given)	79	290	1000	0.35	3.4	56	5.2	37
O=C1c2c(c3c4cccc(O)c4n(C4OC(CO)C(O)C(O)C4O)c3c3[nH]c4ccc(O)cc4c23)C(=O)N1NC(CO)CO (stereo not given)	220	2500	1900	0.55	0.8	250	32	510
O=C1c2c(c3c4ccc(O)cc4n(C4OC(CO)C(O)C(O)C4O)c3c3[nH]c4c(O)cc(O)cc4c23)C(=O)N1NC(CO)CO (stereo not given)	> 30000	–	–	>10	–	> 30000	15000	90
O=C1c2c(c3c4cc(O)ccc4n(C4OC(CO)C(O)C(O)C4O)c3c3[nH]c4ccccc4c23)C(=O)N1NC(CO)CO (stereo not given)	> 30000	–	–	4.5	–	4200	47	1900
O=C1c2c(c3c4ccccc4n(C4OC(CO)C(O)C(O)C4O)c3c3[nH]c4cc(O)ccc4c23)C(=O)N1NC(CO)CO (stereo not given)	2000	820	2700	1.2	3.3	110	13	650
O=C1c2c(c3c4cccc(O)c4n(C4OC(CO)C(O)C(O)C4O)c3c3[nH]c4cc(O)ccc4c23)C(=O)N1NC(CO)CO (stereo not given)	89	220	370	0.4	1.7	87	5.4	160
